This note sets out measurements from patent US7790884B2, “Acylaminopiperidine compound” (Astellas Pharma Inc., priority 2006, dated 2010).

The structures appear in SMILES notation. Structures can show the parent of a compound that is named as a salt.

The test system of one assay is Balb/c mice, oxazolone-induced contact dermatitis. Description: Mouse oxazolone-induced contact dermatitis (ear swelling). Conditions: 30 mg/kg oral administration, swelling 20 hours after oxazolone application. It counts as in vivo. On the procedure:
2. Action Upon Mouse Oxazolone-Induced Contact Dermatitis
Balb/c mice (6 to 10 weeks of age, female, Charles River Japan) were sensitized by applying 150 μl of 3% oxazolone/ethanol solution (Sigma Aldrich Japan) to the abdominal part. On the 6th day after the sensitization, 10 μl of 1% oxazolone/ethanol solution was applied to both sides of the right ear. The test drug was administered in 12 hours after the application of the oxazolone solution (test drug administration group), and the solvent alone used in dissolving the test drug was administered to the control group. Thickness of the right auricle was measured before the application and 20 hours thereafter using a […] (Mitsutoyo), and the swelling (thickness increment=measured value after 20 hours−measured value before application) was calculated. The inhibition ratio was calculated by the following formula, by regarding a group to which the oxazolone solution was applied without sensitization as the normal group. In this connection, the above-mentioned test was carried out by 5 animals per group. Inhibition ratio=(swelling of control group−swelling of test drug administration group)×100/(swelling of control group−swelling of normal group)
On to `COc1cc2nc(N3CCC(N(C)C(=O)[C@@H]4CCCN4C)CC3)nc(Nc3ccc(Cl)cc3F)c2cc1OC` [Example 1, N-(1-{4-[(4-chloro-2-fluorophenyl)amino]-6,7-dimethoxyquinazolin-2-yl}piperidin-4-yl)-N,1-dimethyl-L-prolinamide dihydrochloride], for which the “inhibitory activity (inhibition of right auricle swelling)” value is given as “good inhibitory activity”.

For another assay, the target named is T1, human CCR4 (Homo sapiens, UniProt P51679).
T1 construct: expressed in transfected cells; membrane fraction used
T1 sequence (P51679 1-360): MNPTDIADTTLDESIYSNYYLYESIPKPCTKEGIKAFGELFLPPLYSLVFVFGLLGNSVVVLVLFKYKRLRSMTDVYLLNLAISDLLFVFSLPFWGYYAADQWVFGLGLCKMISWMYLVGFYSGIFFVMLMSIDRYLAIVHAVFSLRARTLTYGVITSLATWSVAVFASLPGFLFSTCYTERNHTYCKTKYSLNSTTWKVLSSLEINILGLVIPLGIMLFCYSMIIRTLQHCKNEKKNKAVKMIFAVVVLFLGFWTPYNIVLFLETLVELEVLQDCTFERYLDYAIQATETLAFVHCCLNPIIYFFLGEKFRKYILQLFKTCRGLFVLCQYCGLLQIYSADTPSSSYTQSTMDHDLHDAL
Description: [35S]GTPγS binding test via CCR4 (human MDC-stimulated, human CCR4 expressing cell line membrane fraction). To be noted: membrane fraction of human CCR4 expressing B300-16 cells, room temperature 1 hour 30 minutes, read-out: inhibitory activity value (IC50). Format: biochemical. Here is the method:
Action for [^35S]GTPγS Binding Test Via CCR4 (1) Preparation of Human CCR4 Expressing Cell Line A vector (contains a neomycin-resistance gene) in which human CCR4 gene was inserted into downstream of the EF-1α promoter was prepared and transfected into a mouse pre B cell line B300-16 cells by electroporation. These cells were cultured using a G-418-supplemented medium, and a single cell line capable of producing human CCR4 constantly and stably was obtained by the limiting dilution method. (2) Preparation of Human CCR4 Expressing Cell Line Membrane Fraction The human CCR4 expressing cells were recovered, washed with PBS and then suspended in a lysis buffer (10 mM HEPES pH 7.5, 2 mM EDTA, proteinase inhibitor). After allowing the suspension to stand on ice for 15 minutes, the cells were disintegrated using a homogenizer and centrifuged (2000 rpm, 10 min, 4° C.). The supernatant was further subjected to ultracentrifugation (22 K, 30 min, 4° C.), and then the pellet was suspended in PBS and used in the subsequent test. (3) GTPγS Binding Test In a reaction mixture liquid containing 20 mM of HEPES pH 7.05, 100 mM of NaCl, 5 mM of MgCl2, 2 μM of GDP, human MDC, […] of [^35S]GTPγS, 1 mg of wheat germ agglutinin SPA beads and 1 μg of the human CCR4 expressing cell line membrane fraction, respective concentration of the test compound was allowed to undergo the reaction at room temperature for 1 hour and 30 minutes, and the radioactivity was measured.
As usually defined, the IC50 is the concentration that gives 50% inhibition. `COc1cc2nc(N3CCC(N(C)C(=O)[C@@H]4CCCN4C)CC3)nc(Nc3ccc(Cl)cc3F)c2cc1OC` [Example 1, N-(1-{4-[(4-chloro-2-fluorophenyl)amino]-6,7-dimethoxyquinazolin-2-yl}piperidin-4-yl)-N,1-dimethyl-L-prolinamide dihydrochloride]: the IC50 is no more than 100 nM. `CN(C(=O)[C@H]1CCCN1)C1CCN(c2nc(Nc3ccc(Cl)cc3F)c3ccc(C#N)cc3n2)CC1` [Example 68]: the IC50 is no more than 100 nM. For the compound `CCN(C(=O)[C@@H]1CCCN1)C1CCN(c2nc(Nc3ccc(Cl)cc3F)c3ccc(C#N)cc3n2)CC1` [Example 69], the IC50 was no more than 100 nM. The same measure, in the same setting: the same measure for `CN(C(=O)[C@H]1CCCN1C)C1CCN(c2nc(Nc3ccc(Cl)cc3F)c3ccc(C#N)cc3n2)CC1` [Example 70]: no more than 100 nM.

For the compound `COc1cc2nc(N3CCC(N(C)C(=O)[C@H]4CCCN4)CC3)nc(Nc3cc(F)c(F)cc3F)c2cc1F` [Example 72], the 50% inhibitory concentration (IC50) is no more than 100 nM. As for `COc1cc2nc(N3CCC(N(C)C(=O)[C@H]4CCCN4)CC3)nc(Nc3ccc(Cl)cc3)c2cc1F` [Example 73], the IC50 was no more than 100 nM. Turning to `COc1cc2nc(N3CCC(N(C)C(=O)[C@H]4CCCN4)CC3)nc(Nc3ccc(Cl)cn3)c2cc1F` [Example 74], the IC50 was no more than 100 nM. For `COc1cc2nc(N3CCC(N(C)C(=O)[C@H]4CCCN4)CC3)nc(Nc3ncc(Cl)cc3Cl)c2cc1F` [Example 75], the IC50 is no more than 100 nM. For `COc1cc2nc(N3CCC(N(C)C(=O)[C@H]4CCCN4)CC3)nc(Nc3ccc(F)cn3)c2cc1F` [Example 76], the IC50 was no more than 100 nM. The same measure, in the same setting: then `COc1cc2nc(N3CCC(N(C)C(=O)[C@H]4CCCN4CCO)CC3)nc(Nc3ccc(Cl)cc3F)c2cc1F` [Example 77], with no more than 100 nM. Regarding `COc1cc2nc(N3CCC(N(C)C(=O)[C@H]4CCCN4)CC3)nc(Nc3c(F)cc(Cl)cc3F)c2cc1F` [Example 78], the IC50 is no more than 100 nM. `COc1cc2nc(N3CCC(N(C)C(=O)[C@H]4CCCN4)CC3)nc(NCc3ccc(Cl)cc3F)c2cc1F` [Example 79]: the IC50 was no more than 100 nM. Turning to `COc1cc2nc(N3CCC(N(C)C(=O)[C@H]4CCCN4CC(O)CO)CC3)nc(Nc3ccc(Cl)cc3F)c2cc1F` (stereo partly drawn) [Example 80], the IC50 was no more than 100 nM. Still for that read-out and setting: the same measure for `COc1cc2nc(N3CCC(N(C)C(=O)[C@@H]4CCCCN4)CC3)nc(Nc3ccc(Cl)cc3F)c2cc1OC` [Example 86]: no more than 100 nM; for `COc1cc2nc(N3CCC(N(C)C(=O)[C@H]4CCCCN4)CC3)nc(Nc3ccc(Cl)cc3F)c2cc1OC` [Example 87]: no more than 100 nM. For `COc1cc2nc(N3CCC(N(C(=O)[C@H]4CCCCN4)C4CC4)CC3)nc(Nc3ccc(Cl)cc3F)c2cc1OC` [Example 90], the IC50 was no more than 100 nM. Turning to `COc1cc2nc(N3CCC(N(C(=O)[C@H]4CCCCN4)C4CCC4)CC3)nc(Nc3ccc(Cl)cc3F)c2cc1OC` [Example 91], the IC50 is no more than 100 nM.

As to `CN(C(=O)[C@H]1CCCN1)C1CCN(c2nc(Nc3ccc(Cl)cc3F)c3cnn(C)c3n2)CC1` [Example 95], the IC50 was no more than 100 nM. As to `CCn1ncc2c(Nc3ccc(Cl)cc3F)nc(N3CCC(N(C)C(=O)[C@H]4CCCN4)CC3)nc21` [Example 99], the IC50 is no more than 100 nM. Same read-out and setting: the same measure for `CCn1ncc2c(Nc3ccc(Cl)cc3F)nc(N3CCC(N(C)C(=O)[C@H]4CCCN4C)CC3)nc21` [Example 100]: no more than 100 nM; for `CN(C(=O)[C@@H]1CCCN1)C1CCN(c2nc(Nc3ccc(Cl)cc3F)c3cnn(CC(F)(F)F)c3n2)CC1` [Example 101]: no more than 100 nM; for `CN(C(=O)[C@H]1CCCN1)C1CCN(c2nc(Nc3ccc(Cl)cc3F)c3cnn(CC(F)(F)F)c3n2)CC1` [Example 102]: no more than 100 nM. On to `CN(C(=O)[C@@H]1CCCN1C)C1CCN(c2nc(Nc3ccc(Cl)cc3F)c3cnn(CC(F)(F)F)c3n2)CC1` [Example 103], for which the IC50 was no more than 100 nM. As to `CN(C(=O)[C@H]1CCCN1C)C1CCN(c2nc(Nc3ccc(Cl)cc3F)c3cnn(CC(F)(F)F)c3n2)CC1` [Example 104], the IC50 is no more than 100 nM. As for `CCn1ncc2c(NCc3ccc(Cl)cc3F)nc(N3CCC(N(C)C(=O)[C@H]4CCCN4)CC3)nc21` [Example 105], the IC50 is no more than 100 nM. With `CN(C(=O)[C@H]1CCCN1)C1CCN(c2nc(NCc3ccc(Cl)cc3F)c3cnn(CC(F)(F)F)c3n2)CC1` [Example 106], the IC50 was no more than 100 nM.
